In PubChem BioAssay (NCI) one finds GI50 and TGI data, which are given here for 17 compounds.

Among the test systems are A549 NSCLC; CAKI-1 renal; HCT-15 colon; MDA-MB-231 breast; NCI-H460 lung; SK-MEL-28 melanoma; SNB-19 CNS; UO-31 renal; MALME-3M melanoma.
Holding throughout (test): growth of human tumour cells (NCI), 48 h

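Five concentrations, 48 hours, 96-well plates. GI50 marks 50% less growth. TGI: total growth inhibition.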

Turning to `COc1cc(OC)cc(-c2n[nH]nc2-c2ccc3c(c2)OCO3)c1`, the GI50 is 0.289 µM in the assay with A549 NSCLC; 0.316 µM in the assay with CAKI-1 renal; 0.125 µM in the assay with HCT-15 colon; 0.529 µM in the assay with MDA-MB-231 breast; 0.335 µM with NCI-H460 lung; 4.44 µM in the assay on SK-MEL-28 melanoma. Further, the GI50 in the assay with SNB-19 CNS is 0.501 µM; in the assay with UO-31 renal, 0.661 µM. Moreover, the TGI in the assay with A549 NSCLC is 50.9 µM; in the assay with CAKI-1 renal, > 100 µM; with HCT-15 colon it was > 100 µM; in the assay with MDA-MB-231 breast, 31.5 µM; in the assay on NCI-H460 lung it was 28.7 µM; in the assay on SK-MEL-28 melanoma, 43.5 µM. The TGI is > 100 µM with SNB-19 CNS and 72.7 µM in the assay with UO-31 renal.

Turning to `Cc1cc(C)c(-c2noc(-c3ccc(Cl)cc3)c2C2=NCCN2)c(C)c1`, the TGI is > 100 µM with A549 NSCLC; > 100 µM in the assay on CAKI-1 renal; 57.4 µM with HCT-15 colon; 37.7 µM in the assay on MALME-3M melanoma; 32.1 µM in the assay with NCI-H460 lung; 36.9 µM in the assay with SK-MEL-28 melanoma. For the same compound, the values for the TGI with SNB-19 CNS and in the assay with UO-31 renal were > 100 µM and 46.9 µM, respectively.

Turning to `NC(N)=Nc1nc2cc(N)ccc2o1`, the TGI with A549 NSCLC, in the assay on CAKI-1 renal, in the assay on HCT-15 colon, in the assay on MALME-3M melanoma, in the assay on NCI-H460 lung and in the assay on SK-MEL-28 melanoma was > 100 µM throughout. Moreover, the TGI in the assay on SNB-19 CNS and with UO-31 renal was > 100 µM in each case.

In the case of `COc1cc(OC)c(Oc2cccc(OC)c2OC)c(OC)c1`, the TGI in the assay on A549 NSCLC, in the assay with CAKI-1 renal, in the assay on NCI-H460 lung, in the assay on SK-MEL-28 melanoma, in the assay with SNB-19 CNS and in the assay with UO-31 renal was > 100 µM each time.

On to `Cc1ccc(NC(=O)C(=O)C2C(=O)C3=C(CC2(C)C)NC2C=CC=CC2S3)c(C)c1` (configuration not stated), for which the TGI in the assay on A549 NSCLC, in the assay on CAKI-1 renal, in the assay with HCT-15 colon, in the assay with MDA-MB-231 breast, in the assay with NCI-H460 lung and in the assay with SK-MEL-28 melanoma was > 100 µM throughout. Further, the TGI in the assay with SNB-19 CNS and in the assay with UO-31 renal was > 100 µM in each case.

For `Cn1c(=O)c(C2c3ccccc3Oc3c2c(=O)n(C)c2ccccc32)c(O)c2ccccc21` (configuration not stated), the TGI in the assay on A549 NSCLC, with CAKI-1 renal, in the assay on HCT-15 colon, in the assay on MALME-3M melanoma, in the assay on NCI-H460 lung and in the assay with SK-MEL-28 melanoma was > 100 µM each time. In addition, the TGI in the assay with SNB-19 CNS and with UO-31 renal was > 100 µM throughout.

Regarding `O=C(Nc1ccc(Cl)cc1Cl)c1c/c(=N\O)c2ccc(O)cc2o1`, the TGI in the assay on A549 NSCLC, in the assay on CAKI-1 renal, with HCT-15 colon, in the assay with MALME-3M melanoma, with NCI-H460 lung and in the assay with SK-MEL-28 melanoma was > 100 µM throughout. Further, the TGI with SNB-19 CNS and in the assay on UO-31 renal was > 100 µM in each case.

On to `O=C(O)C(=O)/C=C\c1ccc(Cl)cc1`, for which the TGI with A549 NSCLC, in the assay with CAKI-1 renal, in the assay with HCT-15 colon, with MALME-3M melanoma, in the assay with NCI-H460 lung and in the assay with SK-MEL-28 melanoma was > 100 µM each time. Also, the TGI in the assay on SNB-19 CNS and in the assay on UO-31 renal was > 100 µM in each case.

`O=c1c2ccccc2oc2nccnc12`: the TGI in the assay with A549 NSCLC, in the assay on CAKI-1 renal, in the assay on HCT-15 colon, in the assay with MALME-3M melanoma, in the assay with NCI-H460 lung and in the assay with SK-MEL-28 melanoma was > 100 µM each time. Also, the TGI in the assay on SNB-19 CNS and with UO-31 renal was > 100 µM in each case.

Turning to `O=C(/C=C(\O)C(=O)O)/C=C(\O)c1ccc(Cl)cc1`, the TGI with A549 NSCLC, in the assay with CAKI-1 renal, in the assay on HCT-15 colon, with MALME-3M melanoma, with NCI-H460 lung and in the assay with SK-MEL-28 melanoma was > 100 µM each time. The TGI in the assay on SNB-19 CNS and in the assay with UO-31 renal was > 100 µM in each case.

With `CCC(C)CNC1=C(NC(C)=O)C(=O)c2ccccc2C1=O` (configuration not stated), the TGI in the assay with A549 NSCLC, in the assay with HCT-15 colon, in the assay with MALME-3M melanoma, in the assay with NCI-H460 lung, in the assay on SK-MEL-28 melanoma and in the assay with SNB-19 CNS was > 100 µM each time. In addition, the TGI in the assay with UO-31 renal was > 100 µM.

As for `CCOC(=O)C(=C=Cc1cccs1)C(=O)c1ccccc1`, the TGI with A549 NSCLC turned out to be 45.5 µM; in the assay on HCT-15 colon it was 30.1 µM; in the assay with MALME-3M melanoma it was 29.3 µM; in the assay on NCI-H460 lung it was 46 µM; with SK-MEL-28 melanoma, 28 µM; in the assay on UO-31 renal, 27.3 µM.

Turning to `Cc1cc(C)cc(NC(=O)CCC(=O)C2CCC/C2=N\NC(=O)C(=O)NN)c1` (configuration not stated), the TGI in the assay with A549 NSCLC, in the assay with CAKI-1 renal, in the assay with HCT-15 colon, in the assay on MALME-3M melanoma, in the assay with NCI-H460 lung and in the assay on SK-MEL-28 melanoma was > 100 µM each time. Also, the TGI in the assay on SNB-19 CNS and in the assay on UO-31 renal was > 100 µM each time.

For the compound `COc1ccc2c(c1)C(CCN)C(=O)N2` (configuration not stated), the TGI in the assay with A549 NSCLC, in the assay with CAKI-1 renal, in the assay on HCT-15 colon, in the assay with MALME-3M melanoma, with NCI-H460 lung and in the assay with SK-MEL-28 melanoma was > 100 µM in each case.

Turning to `c1cc(C2O[C@H]3CCCN3[C@@H]2c2ccncc2)ccn1` (some centres not stated), the TGI in the assay with A549 NSCLC, in the assay on CAKI-1 renal, in the assay with HCT-15 colon, in the assay on MALME-3M melanoma, with NCI-H460 lung and with SK-MEL-28 melanoma was > 100 µM in each case. Also, the TGI in the assay with SNB-19 CNS and in the assay with UO-31 renal was > 100 µM throughout.

Turning to `COC(=O)c1nc(N)[nH]c(=O)c1-c1ccc(Cl)cc1`, the TGI in the assay with A549 NSCLC, with CAKI-1 renal, with HCT-15 colon, in the assay with MALME-3M melanoma, in the assay on NCI-H460 lung and in the assay with SK-MEL-28 melanoma was > 100 µM each time. In addition, the TGI in the assay with SNB-19 CNS and in the assay on UO-31 renal was > 100 µM each time.

As for `CC(=O)OC1CC[C@@]2(C)C(CC(OC3OC(CO)C(O)C(O)C3O)[C@]3(C)C2CCC24CC23CC[C@H]4C(C)CC(O)[C@@H](O)C(C)(C)O)C1(C)C` (some centres not stated), the TGI is > 50 µM in the assay on A549 NSCLC; > 50 µM in the assay with CAKI-1 renal; > 50 µM with HCT-15 colon; 18.8 µM with MALME-3M melanoma; > 50 µM with NCI-H460 lung; 17.4 µM in the assay with SK-MEL-28 melanoma. The TGI in the assay on SNB-19 CNS was 38.3 µM; with UO-31 renal, > 50 µM.
